Reference: patent publication US20230128252A1, “PHARMACEUTICAL COMPOSITIONS” (Shenzhen Pharmacin Co., Ltd., priority 2020, published 2023)
≈ marks a conversion by molar mass, not a printed value.

Experiments:
[1] = Solubility of clofazimine in aqueous media; format: physicochemical; details: aqueous medium, aqueous with cosolvent or surfactant or cyclodextrin, thermodynamic from solid; pH 4.5 + 0.25% SDS, 25° C.
Description: Clofazimine was added to various aqueous media, at various pH values (2-5 mL) in a 10 mL glass vial, at 25° C., with stirring. […] This cycle was repeated until no further dissolution was observable. The suspension was then centrifuged and the supernatant filtered by microfiltration.

[2] = Solubility of clofazimine in fatty acids; format: physicochemical; details: fatty acid, 25 °C
[3] = Skin permeability of clofazimine preparations (vertical Franz diffusion cells); format: in vitro ADME, NU/NU nude mice

What does the source list for `CC(C)/N=c1\cc2n(-c3ccc(Cl)cc3)c3ccccc3nc-2cc1Nc1ccc(Cl)cc1` [Clofazimine, N,5-bis(4-chlorophenyl)-3-propan-2-ylimino phenazin-2-amine]?
solubility at 24 h [1]: 0.71 mg/mL; solubility ([2]; oil or lipid, Heptanoic acid): 78.3 mg/mL (≈ 165 mM); solubility ([2]; oil or lipid, Hexanoic acid): 80.7 mg/mL (≈ 170 mM); solubility ([2]; oil or lipid, Linoleic acid): 90.2 mg/mL (≈ 191 mM); solubility ([2]; oil or lipid, Octanoic acid): 56.3 mg/mL (≈ 119 mM); solubility ([2]; oil or lipid, Oleic acid): 106 mg/mL (≈ 223 mM); solubility ([2]; organic solvent or mixture, Acetic acid): 30.2 mg/mL (≈ 63.8 mM); solubility ([2]; organic solvent or mixture, Butyric acid): 49.2 mg/mL (≈ 104 mM); solubility ([2]; organic solvent or mixture, Isovaleric acid): 58.6 mg/mL (≈ 124 mM); solubility ([2]; organic solvent or mixture, Propionic acid): 28.2 mg/mL (≈ 59.7 mM); clofazimine content (Table 12, FIG. 3) ([3]; Gel, PEG 400 10 wt %): 1.6000 μg/cm^2; clofazimine content (Table 12, FIG. 3) ([3]; Gel, Transcutol): 0.1894 μg/cm^2; clofazimine content (Table 12, FIG. 3) ([3]; Gel, Tween 80 10 wt %): 0.9800 μg/cm^2; clofazimine content (Table 12, FIG. 3) ([3]; Gel, labrasol 10 wt %): 0.8200 μg/cm^2; clofazimine content (Table 12, FIG. 3) ([3]; Solvents (solution), PEG 400 99.9 wt %): 0.2700 μg/cm^2; clofazimine content (Table 12, FIG. 3) ([3]; Solvents (solution), Transcutol): 0.0596 μg/cm^2; clofazimine content (Table 12, FIG. 3) ([3]; Solvents (solution), Tween 80 99.9 wt %): 0.2500 μg/cm^2; clofazimine content (Table 12, FIG. 3) ([3]; Solvents (solution), labrasol 99.9 wt %): 0.2600 μg/cm^2; clofazimine content ([3]; gel: Carbomer 940 0.5, Transcutol 20, Lecithin 5 wt %, pH 7.0, clofazimine amount 0.01%): 0.0568 ug/cm^2; clofazimine content ([3]; gel: Carbomer 940 0.5, Transcutol 20, Lecithin 5 wt %, pH 7.0, clofazimine amount 0.02%): 0.1971 ug/cm^2; clofazimine content ([3]; gel: Carbomer 940 0.5, Transcutol 20, Lecithin 5 wt %, pH 7.0, clofazimine amount 0.05%): 0.5394 ug/cm^2; clofazimine content ([3]; gel: Carbomer 940 0.5, Transcutol 20, Lecithin 5 wt %, pH 7.0, clofazimine amount 0.1%): 0.8014 ug/cm^2; clofazimine content ([3]; gel: Carbomer 940 0.5, Transcutol 20, Lecithin 5 wt %, pH 7.0, clofazimine amount 0.2%): 0.7102 ug/cm^2; clofazimine content ([3]; gel: Carbomer 940 0.5, Transcutol 20, Lecithin 5 wt %, pH 7.0, clofazimine amount 0.5%): 0.7512 ug/cm^2; clofazimine content ([3]; gel: clofazimine 0.1, Carbomer 940 0.5, Transcutol 20, Lecithin 5 wt %, pH 6.0): 0.4246 ug/cm^2; clofazimine content ([3]; gel: clofazimine 0.1, Carbomer 940 0.5, Transcutol 20, Lecithin 5 wt %, pH 7.0): 0.4146 ug/cm^2; clofazimine content ([3]; gel: clofazimine 0.1, Carbomer 940 0.5, Transcutol 20, Lecithin 5 wt %, pH 8.0): 0.3463 ug/cm^2; clofazimine content ([3]; gel: clofazimine 0.1, Carbomer 940 0.5, Transcutol 20, Lecithin 5 wt %, pH 9.0): 0.2970 ug/cm^2; clofazimine content ([3]; gel: clofazimine 0.1, Carbomer 940 0.5, Transcutol 20, Lecithin 5 wt %, pH 9.5): 0.2463 ug/cm^2; clofazimine content ([3]; gel: clofazimine 0.1, Carbomer 940 0.5, Transcutol 20 wt %, pH 7.0, Control (water instead of penetration enhancer)): 0.1331 ug/cm^2; clofazimine content ([3]; gel: clofazimine 0.1, Carbomer 940 0.5, Transcutol 20 wt %, pH 7.0, lecithin 2%): 0.2272 ug/cm^2; clofazimine content ([3]; gel: clofazimine 0.1, Carbomer 940 0.5, Transcutol 20 wt %, pH 7.0, lecithin 3%): 0.2745 ug/cm^2; clofazimine content ([3]; gel: clofazimine 0.1, Carbomer 940 0.5, Transcutol 20 wt %, pH 7.0, lecithin 4%): 0.3026 ug/cm^2; clofazimine content ([3]; gel: clofazimine 0.1, Carbomer 940 0.5, Transcutol 20 wt %, pH 7.0, lecithin 5%): 0.3578 ug/cm^2; clofazimine content ([3]; gel: clofazimine 0.1, Carbomer 940 0.5, Transcutol 20 wt %, pH 7.0, lecithin 6%): 0.3335 ug/cm^2; clofazimine content ([3]; gel: clofazimine 0.1, Carbomer 940 0.5, Transcutol 20 wt %, pH 7.0, lecithin 10%): 0.3968 ug/cm^2; clofazimine content ([3]; gel: clofazimine 0.1, Carbomer 940 0.5, Transcutol 20 wt %, pH 7.0, lecithin 19%): 0.2989 ug/cm^2; clofazimine content ([3]; gel: clofazimine 0.1, Carbomer 940 0.5, Transcutol 20 wt %, pH 7.0, penetration enhancer 4 wt %: DMSO): 0.1806 ug/cm^2; clofazimine content ([3]; gel: clofazimine 0.1, Carbomer 940 0.5, Transcutol 20 wt %, pH 7.0, penetration enhancer 4 wt %: Ethanol): 0.2055 ug/cm^2; clofazimine content ([3]; gel: clofazimine 0.1, Carbomer 940 0.5, Transcutol 20 wt %, pH 7.0, penetration enhancer 4 wt %: Lecithin): 0.9881 ug/cm^2; clofazimine content ([3]; gel: clofazimine 0.1, Carbomer 940 0.5, Transcutol 20 wt %, pH 7.0, penetration enhancer 4 wt %: Octanol): 0.6230 ug/cm^2; clofazimine content ([3]; gel: clofazimine 0.1, Carbomer 940 0.5, Transcutol 20 wt %, pH 7.0, penetration enhancer 4 wt %: Oleic acid): 0.2344 ug/cm^2; clofazimine content ([3]; gel: clofazimine 0.1, Carbomer 940 0.5, Transcutol 20 wt %, pH 7.0, penetration enhancer 4 wt %: SDS (0.05%)): 0.1829 ug/cm^2; clofazimine content ([3]; gel: clofazimine 0.1, Carbomer 940 0.5, Transcutol 20 wt %, pH 7.0, penetration enhancer 4 wt %: Tween 20): 0.1535 ug/cm^2; clofazimine content ([3]; gel: clofazimine 0.1, Carbomer 940 0.5, Transcutol 20 wt %, pH 7.0, penetration enhancer 4 wt %: Tween 80): 0.2484 ug/cm^2; clofazimine content ([3]; gel: clofazimine 0.1, Carbomer 940 0.5 wt %, pH 7.0, solvent 10 wt % PEG 400, 4 hours): 1.6000 ug/cm^2; clofazimine content ([3]; gel: clofazimine 0.1, Carbomer 940 0.5 wt %, pH 7.0, solvent 10 wt % Transuctol, 4 hours): 0.1894 ug/cm^2; clofazimine content ([3]; gel: clofazimine 0.1, Carbomer 940 0.5 wt %, pH 7.0, solvent 10 wt % Tween 80, 4 hours): 0.9800 ug/cm^2; clofazimine content ([3]; gel: clofazimine 0.1, Carbomer 940 0.5 wt %, pH 7.0, solvent 10 wt % labrasol, 4 hours): 0.8200 ug/cm^2; clofazimine content ([3]; gel: clofazimine 0.1, Transcutol 20, Lecithin 5 wt %, pH 7.0, Carbomer 940 amount 0.5%): 0.4871 ug/cm^2; clofazimine content ([3]; gel: clofazimine 0.1, Transcutol 20, Lecithin 5 wt %, pH 7.0, Carbomer 940 amount 0.8%): 0.3054 ug/cm^2; clofazimine content ([3]; gel: clofazimine 0.1, Transcutol 20, Lecithin 5 wt %, pH 7.0, Carbomer 940 amount 1.0%): 0.3205 ug/cm^2
